Assay results from PMC9728284, “Inhibition of Herpes Simplex Viruses, Types 1 and 2, by Ginsenoside 20(S)-Rg3” (Journal of Microbiology and Biotechnology, 2019).
Where “and” joins values, the source holds several entries; their conditions need not be identical. Equal values may be shown once.

Assays:
HSV-1 [1] = test: HSV-1 inhibition in Vero cells (PrestoBlue, compound and virus added simultaneously); assay type: cell-based, Herpes simplex virus type 1 (MacIntyre strain); details: for IC50: Human alphaherpesvirus 1, two-fold dilutions, linear regression, Vero cells, read-out: IC50 against HSV-1
Protocol: (§1) Herpes simplex virus type 1 (HSV-1, MacIntyre strain, ATCC, VR-539) or herpes simplex virus type 2 (HSV-2, ATCC, VR-734) were used in these studies. Virus titer was determined by plaque assay. Briefly, following 2 h adsorption of various virus dilutions onto a Vero cell monolayer in a 24-well plate, the medium was removed and cells were overlaid with 1.5% carboxymethylcellulose (Sigma) and incubated 48 h at 37°C with 5% CO2. After incubation, cells were fixed with methanol, stained with Giemsa (Sigma) and plaques were counted. Each virus dilution was prepared in quadruplicate.
(§2) All ginsenosides, isomers, and protopanaxadiols were evaluated for toxic effects on Vero cells prior to anti-viral testing. Cells were seeded at 5,000 cells/well in a black 96-well plate with clear bottom in a volume of 100 µl and allowed to attach for 24 h. The P. ginseng compounds were prepared in DMSO at 100 µM and were taken through serial two-fold dilutions to determine the concentration when the rate of cell death was less than 10%compared to control, untreated cells. Each dilution was tested in three wells and all assays were repeated three times. Following 48 h incubation at 37°C in 5% CO2, 11 µl of PrestoBlue (Invitrogen) was added to each well and the plate was incubated for an additional 30 min. PrestoBlue determines cell viability by changing from blue to red as resazurin is reduced to resorufin by viable cells. Following the PrestoBlue incubation, fluorescence was determined by spectrophotometric reading using Soft Max Pro (Molecular Diagnostics, USA).
(§3) For cytotoxicity testing, 4 µl of dilutions of the ginsenosides or protopanaxadiols were added to 396 µl of medium 199 and 100 µl of this mixture was added to each of three wells. For anti-viral testing, 4 µl of the non-toxic reagent and 4 µl of HSV-1 or HSV-2 diluted to an MOI of 0.1 were added to 392 µl of medium 199 and 100 µl of this was added to each of three wells. Virus inhibition was determined by comparing the cell death of reagent-exposed cells with cell death of control cells only receiving virus. The 50%inhibitory concentration (IC50) was determined through a series of two-fold dilutions and calculation by linear regression analysis.

HSV-1 [2] = test: Plaque reduction of HSV-1 on Vero cell monolayer; assay type: cell-based, Herpes simplex virus type 1 (MacIntyre strain); details: valacyclovir 16 μM, 20(S)-Rg3 50 μM; for Number of Plaques: approximately 50 PFU/well, 48 h, ± standard error; for Percent Reduction (plaques of HSV-1): compared to control
Protocol: as §1
The plaque assay procedure also was used to evaluate the percent plaque reduction; the only procedural change was that a constant virus concentration was used (50 PFU/well). Plaque reduction was measured by comparing the control (virus only), with valacyclovir (16 µM) with virus or 20(S)-Rg3 (50 µM) with virus. Sample wells were evaluated in quadruplicate. Following the 2 h virus adsorption, the methylcellulose-medium containing the same concentrations of valacyclovir or 20(S)-Rg3 was added to the appropriate wells. After 48 h, plaques were fixed, stained and counted.

HSV-1 [3] = test: Time studies of HSV-1 inhibition (PrestoBlue); assay type: cell-based, Herpes simplex virus type 1 (MacIntyre strain); details: for Percent Inhibition of HSV-1: 20(S)-Rg3 50 μM
Protocol: For virus inhibition studies described above, reagent 20(S)-Rg3 and virus were added to cells simultaneously. In an attempt to evaluate the potential mode of action of 20(S)-Rg3, various combinations of valacyclovir, 20(S)-Rg3 and HSV-1 were tested at different time periods. The following combinations were evaluated at both one hour and four hours:
• ● Virus applied to cells first (for one hour or four hours), followed by addition of valacyclovir, 20(S)-Rg3 or both valacyclovir and 20(S)-Rg3 to the cells • ● Valacyclovir or 20(S)-Rg3 or both valacyclovir and 20(S)-Rg3 applied to cells first (for one or four hours), followed by virus • ● Valacyclovir or 20(S)-Rg3 incubated together with virus first for one or four hours then added to cells
All procedures described for evaluation of virus inhibition were followed in identical fashion as outlined for the PrestoBlue procedure except valacyclovir was used at a constant concentration of 16 µM and 20(S)-Rg3 at 50 µM.

HSV-2 = HSV-2 inhibition in Vero cells (PrestoBlue, compound and virus added simultaneously); assay type: cell-based, herpes simplex virus type 2; details: for Percent Inhibition of HSV-2: ± standard error
Protocol: as §1, §2, §3

[4] = Cytotoxicity on Vero cells (PrestoBlue cell viability assay); assay type: cell-based; details: African green monkey
Protocol: as §2, §3

Vero cells = test: as above; assay type: cell-based
Protocol: as §2, §3

[5] = as above; assay type: cell-based; details: African green monkey, read-out: Percent Cell Viability; for viability at 48 h, 500 μM: 20(S)-Rg3 500 μM
PC12 cells = details: cited from earlier work
normal WI 38 cells = tested on: normal WI 38 cells; design: method as in PMID 18365686; details: 120 μM; cited from earlier work
[6] = tested on: human carcinoma cells KB V20C; details: cited from earlier work
[7] = design: method as in New Drug Application #20-487/S-007, GlaxoSmithKline; details: ref New Drug Application #20-487/S-007, GlaxoSmithKline; cited from earlier work
[8] = each compound at its non-toxic concentration (Table 1 c1), MOI 0.1, value in parentheses = higher cell death than virus-alone control

20(S)-Rh2
Percent Inhibition of HSV-1 (HSV-1 [1]; [8]): 46.2%

CC(C)=CCC[C@@](C)(O)C1CC[C@]2(C)C1C(O)CC1C3(C)CCC(OC4OC(CO)C(O)C(O)C4OC4OC(CO)C(O)C(O)C4O)C(C)(C)C3CCC12C (stereo partly drawn) [20(R)-Rg3]
Percent Inhibition of HSV-1 (HSV-1 [1]; [8]): 22.7%

CC(C)=CCC[C@@](C)(O)C1CC[C@]2(C)C1C(O)CC1C3(C)CCC(O)C(C)(C)C3CCC12C (stereo partly drawn) [20(R)-protopanaxadiol]
Percent Inhibition of HSV-1 (HSV-1 [1]; [8]): 14.4%

CC(C)=CCC[C@](C)(O)C1CC[C@]2(C)C1C(O)CC1C3(C)CCC(OC4OC(CO)C(O)C(O)C4OC4OC(CO)C(O)C(O)C4O)C(C)(C)C3CCC12C (stereo partly drawn) [20(S)-Rg3, Ginsenoside 20(S)-Rg3]
Percent Inhibition of HSV-1 (HSV-1 [1]; 20(S)-Rg3 25 μM, ± standard error): 11.0 ± 2.6% | Percent Inhibition of HSV-1 (HSV-1 [1]; 20(S)-Rg3 50 μM, ± standard error): 80% and 82.3 ± 3.5% | Percent Inhibition of HSV-1 (HSV-1 [1]; 20(S)-Rg3 100 μM, ± standard error): 90.3 ± 9.9% | IC50 (HSV-1 [1]): ~35 µM | Percent Inhibition of HSV-1 (HSV-1 [1]; [8]): 90.3% | Number of Plaques (HSV-1 [2]): 1.5 ± 0.3 | Percent Reduction (plaques of HSV-1) (HSV-1 [2]): 97.3% | Percent Inhibition of HSV-1 (HSV-1 [3]; cells treated with compound 4 h prior to HSV-1 addition): 90.1 ± 11.1% | Percent Inhibition of HSV-1 (HSV-1 [3]; virus present on cells 4 h prior to compound addition): 50.7 ± 4.4% | Percent Inhibition of HSV-2 (HSV-2; 20(S)-Rg3 25 μM): 14.3 ± 3.3% | Percent Inhibition of HSV-2 (HSV-2; 20(S)-Rg3 50 μM): 80% and 81.7 ± 10.3% | Percent Inhibition of HSV-2 (HSV-2; 20(S)-Rg3 100 μM): 114.7 ± 6.7% | IC50 (HSV-2; Human alphaherpesvirus 2, two-fold dilutions, linear regression, Vero cells, read-out: IC50 against HSV-2): ~35 µM | IC50 at 48 h [4]: ~400 µM | viability at 48 h, 50 μM ([4]; 20(S)-Rg3 50 μM, parentheses = greater proliferation or metabolic activity than untreated cells, read-out: Percent Cell Viability): 113% | viability at 48 h, 100 μM ([4]; 20(S)-Rg3 100 μM, parentheses = greater proliferation or metabolic activity than untreated cells, read-out: Percent Cell Viability): 114% | selectivity (Vero cells; Vero cell toxicity IC50 versus antiviral IC50 (HSV-1 and HSV-2)): 11 fold | viability at 48 h, 125 μM ([5]; 20(S)-Rg3 125 μM, parentheses = greater proliferation or metabolic activity than untreated cells): 122% | viability at 48 h, 250 μM ([5]; 20(S)-Rg3 250 μM, parentheses = greater proliferation or metabolic activity than untreated cells): 129% | viability at 48 h, 500 μM [5]: 17.7 ± 14.7%

CC(C)=CCC[C@](C)(O)C1CC[C@]2(C)C1C(O)CC1C3(C)CCC(O)C(C)(C)C3CCC12C (stereo partly drawn) [20(S)-protopanaxadiol]
concentration not toxic for PC12 cells (PC12 cells): 20 µM

CC(C)=CCC[C@](C)(O[C@@H]1O[C@H](CO[C@@H]2O[C@H](CO)[C@@H](O)[C@H](O)[C@H]2O)[C@@H](O)[C@H](O)[C@H]1O)[C@H]1CC[C@]2(C)[C@@H]1[C@H](O)C[C@@H]1[C@@]3(C)CC[C@H](O[C@@H]4O[C@H](CO)[C@@H](O)[C@H](O)[C@H]4O[C@@H]4O[C@H](CO)[C@@H](O)[C@H](O)[C@H]4O)C(C)(C)[C@@H]3CC[C@]12C [Rb1]
Percent Inhibition of HSV-1 (HSV-1 [1]; [8]): 23% and 23.3%

CC(C)=CCC[C@](C)(O[C@@H]1O[C@H](CO[C@@H]2OC[C@H](O)[C@H](O)[C@H]2O)[C@@H](O)[C@H](O)[C@H]1O)[C@H]1CC[C@]2(C)[C@@H]1[C@H](O)C[C@@H]1[C@@]3(C)CC[C@H](O[C@@H]4O[C@H](CO)[C@@H](O)[C@H](O)[C@H]4O[C@@H]4O[C@H](CO)[C@@H](O)[C@H](O)[C@H]4O)C(C)(C)[C@@H]3CC[C@]12C [Rb2]
Percent Inhibition of HSV-1 (HSV-1 [1]; [8]): 26.4%

CC(C)=CCC[C@](C)(O[C@@H]1O[C@H](CO[C@@H]2OC[C@@H](O)[C@H](O)[C@H]2O)[C@@H](O)[C@H](O)[C@H]1O)[C@H]1CC[C@]2(C)[C@@H]1[C@H](O)C[C@@H]1[C@@]3(C)CC[C@H](O[C@@H]4O[C@H](CO)[C@@H](O)[C@H](O)[C@H]4O[C@@H]4O[C@H](CO)[C@@H](O)[C@H](O)[C@H]4O)C(C)(C)[C@@H]3CC[C@]12C [Rb3]
Percent Inhibition of HSV-1 (HSV-1 [1]; [8]): 30.9%

CC(C)=CCC[C@](C)(O[C@@H]1O[C@H](CO[C@@H]2O[C@@H](CO)[C@H](O)[C@H]2O)[C@@H](O)[C@H](O)[C@H]1O)[C@H]1CC[C@]2(C)[C@@H]1[C@H](O)C[C@@H]1[C@@]3(C)CC[C@H](O[C@@H]4O[C@H](CO)[C@@H](O)[C@H](O)[C@H]4O[C@@H]4O[C@H](CO)[C@@H](O)[C@H](O)[C@H]4O)C(C)(C)[C@@H]3CC[C@]12C [Rc]
Percent Inhibition of HSV-1 (HSV-1 [1]; [8]): 28.6%

CC(C)=CCC[C@](C)(O[C@@H]1O[C@H](CO)[C@@H](O)[C@H](O)[C@H]1O)[C@H]1CC[C@]2(C)[C@@H]1[C@H](O)C[C@@H]1[C@@]3(C)CC[C@H](O[C@@H]4O[C@H](CO)[C@@H](O)[C@H](O)[C@H]4O[C@@H]4O[C@H](CO)[C@@H](O)[C@H](O)[C@H]4O)C(C)(C)[C@@H]3CC[C@]12C [Rd]
Percent Inhibition of HSV-1 (HSV-1 [1]; [8]): 36.1%

CC(C)=CCC[C@](C)(O[C@@H]1O[C@H](CO)[C@@H](O)[C@H](O)[C@H]1O)[C@H]1CC[C@]2(C)[C@@H]1[C@H](O)C[C@@H]1[C@@]3(C)CC[C@H](O)C(C)(C)[C@@H]3[C@@H](O[C@@H]3O[C@H](CO)[C@@H](O)[C@H](O)[C@H]3O[C@@H]3O[C@@H](C)[C@H](O)[C@@H](O)[C@H]3O)C[C@]12C [Re]
Percent Inhibition of HSV-1 (HSV-1 [1]; [8]): 26.7%

CC(C)=CCC[C@](C)(O[C@@H]1O[C@H](CO)[C@@H](O)[C@H](O)[C@H]1O)[C@H]1CC[C@]2(C)[C@@H]1[C@H](O)C[C@@H]1[C@@]3(C)CC[C@H](O)C(C)(C)[C@@H]3[C@@H](O[C@@H]3O[C@H](CO)[C@@H](O)[C@H](O)[C@H]3O)C[C@]12C [Rg1]
Percent Inhibition of HSV-1 (HSV-1 [1]; [8]): 13.2%

CC(C)=CCCC(C)(O)C1CC[C@]2(C)C1C(O)CC1C3(C)CCC(OC4OC(CO)C(O)C(O)C4OC4OC(CO)C(O)C(O)C4O)C(C)(C)C3CCC12C (some centres unmarked) [Rg3, ginsenoside Rg3]
effect on normal WI 38 cells (normal WI 38 cells): no effect | cytotoxic concentration [6]: 120 µM | viability at 48 h, 500 μM [5]: < 20%

CC(C)[C@H](N)C(=O)OCCOCn1cnc2c(=O)[nH]c(N)nc21 [Valacyclovir, reference compound]
IC50 (HSV-1 [1]): 13.2 µM | Number of Plaques (HSV-1 [2]): 8.1 ± 1.1 | Percent Reduction (plaques of HSV-1) (HSV-1 [2]): 85.7% | inhibition at 16 µM (HSV-1 [3]; Human alphaherpesvirus 1, HSV-1 incubated together with valacyclovir (16 μM) 0 to 4 h prior to addition to cells, read-out: percent inhibition of HSV-1): 52.3 to 54.7% | reported IC50 ranges [7]: 0.02 to 13.5 µg/mL | viability at 48 h, 16 μM [4]: ~99% | percent cell death (Vero cells; African green monkey, 48 h, 16 μM): 1.2 ± 0.4%
